Test results: ChEMBL document CHEMBL5512633, “Hit-to-lead optimization of 2-aminoquinazolines as anti-microbial agents against Leishmania donovani” (Eur J Med Chem, 2024)
Calls of active or inactive are those of the source. No cut-off for these calls is given here.

Key:
[1] = system: Leishmania donovani; assay: Antileishmanial activity against Leishmania donovani MHOM/IN/1983/AG83 axenic amastigotes assessed as inhibition of growth incubated for 48 hrs by flow cytometric analysis; type: functional, organism-based; details: MHOM/IN/1983/AG83, 48 h
[2] = Cytotoxicity against human THP-1 cells incubated for 72 hrs by DAPI staining based analysis; type: toxicity, cell-based
[3] = Stability in mouse plasma assessed as compound remaining measured after 2 hrs by LC-MS/MS analysis; type: ADME, cell-free; details: read-out: Stability
[4] = Lipophilicity, logD of compound in 1-octanol and phosphate buffer at pH 7.4 by HPLC-UV analysis; type: physicochemical; details: 1-octanol/phosphate buffer
[5] = Metabolic stability in human liver microsomes assessed as hepatic blood flow preincubated for 10 mins and measured after 60 mins by LC-MS/MS analysis; type: ADME, Microsome; details: read-out: QH
[6] = Metabolic stability in mouse liver microsomes assessed as hepatic blood flow preincubated for 10 mins and measured after 60 mins by LC-MS/MS analysis; type: ADME, Microsome; details: read-out: QH
[7] = Stability in human plasma assessed as compound remaining measured after 2 hrs by LC-MS/MS analysis; type: ADME, cell-free; details: read-out: Stability
[8] = Metabolic stability in human liver microsomes assessed as half-life preincubated for 10 mins and measured after 60 mins by LC-MS/MS analysis; type: ADME, Microsome
[9] = Metabolic stability in mouse liver microsomes assessed as half-life preincubated for 10 mins and measured after 60 mins by LC-MS/MS analysis; type: ADME, Microsome
[10] = system: Leishmania donovani; assay: Antileishmanial activity against Leishmania donovani MHOM/IN/1983/AG83 axenic amastigotes assessed as inhibition of growth at 30 uM incubated for 48 hrs by flow cytometric analysis relative to control; type: functional

Row | Structure (SMILES) | IC50 [1] [µM] | CC50 at 72 h [2] [µM] | remaining at 2 h [3] [%] | logD [4] | hepatic extraction ratio at 1 h [5] | hepatic extraction ratio at 1 h [6] | remaining at 2 h [7] [%] | half-life [8] [min] | half-life [9] [min] | inhibition at 30 µM [10] [%] | inhibition [10]
1 | COc1cc2c(N3CCCCC3)nc(NCc3ccccc3)nc2cc1O | 11.3 | 30.2 |  |  |  |  |  |  |  |  | 
2 | COc1cc2c(N(C)C)nc(NCc3ccc(F)cc3)nc2cc1OC1CCCC1 | 5.67 | 3.79 | 91.6 | 2.46 | 0.799 | 0.733 | 81.2 | 8.1 | 6.9 |  | 
3 | COc1cc2c(N3CCCCC3)nc(N(C)C)nc2cc1O |  | 73.4 |  |  |  |  |  |  |  | ~18.8 | 
4 | COc1cc2c(N3CCCCC3)nc(NCc3ccc(F)cc3)nc2cc1O | 12.2 | 28.2 |  |  |  |  |  |  |  |  | 
5 | COc1cc2c(N3CCCCC3)nc(N)nc2cc1O |  | 22.2 |  |  |  |  |  |  |  | ~13.6 | 
6 | COc1cc2c(N3CCCCC3)nc(NC3CCCCC3)nc2cc1OC1CCCC1 | 3.28 | 10.2 |  |  |  |  |  |  |  |  | 
7 | COc1cc2c(N3CCCCC3)nc(NCC3CCCCC3)nc2cc1OC1CCCC1 | 4.36 | 6.97 | 99.3 | 3.34 | 0.747 | 0.699 | 46 | 22.2 | 16.3 |  | 
8 | CC(C)[N+](C)(CCOC(=O)C1c2ccccc2Oc2ccccc21)C(C)C [PROPANTHELINE] |  |  | 37.2 |  |  |  | 1.2 |  |  |  | 
9 | COc1cc2c(N3CCCCC3)nc(NCc3ccc(C(F)(F)F)cc3)nc2cc1OC1CCCC1 | 17.9 | 28.1 | 88.1 | 2.94 | 0.455 | 0.484 | 97.5 | 38.9 | 20.3 |  | 
10 | COc1cc2c(N3CCCCC3)nc(NCc3ccc(F)cc3)nc2cc1OC1CCCC1 | 10.2 | 46.5 | 96.9 | 2.64 | 0.722 | 0.592 | 105 | 12.4 | 13 |  | 
11 | COc1cc2c(N3CCCCC3)nc(NCc3ccccc3)nc2cc1OCc1ccccc1 | 9.54 | > 100 |  |  |  |  |  |  |  |  | 
12 | COc1cc2c(N3CCCCC3)nc(Cl)nc2cc1OCc1ccccc1 |  | > 100 |  |  |  |  |  |  |  |  | inactive
13 | COc1cc2c(N3CCOCC3)nc(NCc3ccc(F)cc3)nc2cc1OC1CCCC1 | 12 | > 50 | 95.6 | 3.22 | 0.843 | 0.732 | 59.3 | 6 | 6.9 |  | 
14 | CCCCc1ccc(CNc2nc(N3CCCCC3)c3cc(OC)c(OC4CCCC4)cc3n2)cc1 |  | 5.69 |  |  |  |  |  |  |  | ~17 | 
15 | COc1cc2c(N3CCCCC3)nc(NCc3ccc([N+](=O)[O-])cc3)nc2cc1OC1CCCC1 | 9.63 | 5.68 |  |  |  |  |  |  |  |  | 
16 | COc1cc2c(N3CCCCC3)nc(NC(=O)c3ccc(Cl)cc3)nc2cc1OC1CCCC1 | 16.6 | 7.58 |  |  |  |  |  |  |  |  | 
17 | Clc1ccc(CNc2nc(N3CCCCC3)c3cc4c(cc3n2)OCO4)cc1 | 13.5 | 13.8 | 97.4 | 2.42 | 0.668 | 0.637 | 77.5 | 16 | 10.8 |  | 
18 | COc1cc2c(N3CCCCC3)nc(NCc3ccc(F)cc3)nc2cc1OCc1ccccc1 | 10.5 | 26.9 |  |  |  |  |  |  |  |  | 
19 | COc1ccc(CNc2nc(N3CCCCC3)c3cc(OC)c(O)cc3n2)cc1 | 12.3 | > 50 |  |  |  |  |  |  |  |  | 
20 | COc1cc2c(N3CCCCC3)nc(NCc3ccccc3)nc2cc1OC1CCCC1 | 7.49 | 4.13 | 88.7 | 2.59 | 0.607 | 0.496 | 93.7 | 20.8 | 19.2 |  | 

Row | Structure (SMILES) | IC50 [1] [µM] | CC50 at 72 h [2] [µM] | remaining at 2 h [3] [%] | logD [4] | hepatic extraction ratio at 1 h [5] | hepatic extraction ratio at 1 h [6] | remaining at 2 h [7] [%] | half-life [8] [min] | half-life [9] [min] | inhibition at 30 µM [10] [%] | inhibition [10]
21 | CNc1nc(NCc2ccc(F)cc2)nc2cc(OC3CCCC3)c(OC)cc12 | 1.55 | 2.29 | 88.9 | 2.22 | 0.738 | 0.674 | 73.2 | 11.4 | 9.1 |  | 
22 | COc1cc2c(N3CCCCC3)nc(N)nc2cc1OC1CCCC1 | 19.4 | > 100 |  |  |  |  |  |  |  |  | 
23 | COc1cc2c(N3CCCCC3)nc(NCc3ccc(C)cc3)nc2cc1OC1CCCC1 | 5.32 | 3.49 |  |  |  |  |  |  |  |  | 
24 | COc1ccc(CNc2nc(N3CCCCC3)c3cc(OC)c(OC4CCCC4)cc3n2)cc1 | 16.6 | 4.56 |  |  |  |  |  |  |  |  | 
25 | COc1cc2c(N3CCCCC3)nc(N)nc2cc1OCc1ccccc1 | 12 | 15.4 |  |  |  |  |  |  |  |  | 
26 | COc1ccc(CNc2nc(N3CCCCC3)c3cc(OC)c(OCc4ccccc4)cc3n2)cc1 | 10.3 | 19.5 | 106 | 2.39 | 0.499 | 0.548 | 70.2 | 32.2 | 15.5 |  | 
27 | COc1cc2c(N3CCCCC3)nc(NCc3ccc(C(C)(C)C)cc3)nc2cc1OC1CCCC1 | 4.93 | 2.63 | 44 | 3.66 | 0.216 | 0.454 | 63 | 117 | 22.8 |  | 
28 | COc1cc2c(N(C)C)nc(NCc3ccc(Br)cc3)nc2cc1O | 4.78 |  |  |  |  |  |  |  |  |  | 
29 | COc1cc2c(N3CCCCC3)nc(N(C)Cc3ccc(Cl)cc3)nc2cc1OC1CCCC1 | 10.2 | > 50 |  |  |  |  |  |  |  |  | 
30 | COc1cc2c(N3CCCCC3)nc(NCc3ccc(C(F)(F)F)cc3)nc2cc1O | 8.91 | 27.1 |  |  |  |  |  |  |  |  | 
31 | COc1cc2c(N3CCCCC3)nc(NCc3ccc(Cl)cc3)nc2cc1OC1CCCC1 | 8.13 | 12.2 | 92.2 | 3.14 | 0.627 | 0.519 | 103 | 19.1 | 17.5 |  | 
32 | O=c1c(O)c(-c2ccc(O)c(O)c2)oc2cc(O)cc(O)c12 [QUERCETIN] |  |  |  | 2.5 |  |  |  |  |  |  | 
33 | COc1cc2nc(NCc3ccc(F)cc3)nc(N3CCCCC3)c2cc1OC | 13.7 | 11.1 |  |  |  |  |  |  |  |  | 
34 | COc1cc2c(N3CCCCC3)nc(N(C)Cc3ccc(Br)cc3)nc2cc1OC1CCCC1 | 54 | 34.4 |  |  |  |  |  |  |  |  | 
35 | COc1cc2c(N(C)C)nc(NCc3ccc(Br)cc3)nc2cc1OC1CCNC1 (centres undefined) | 3.26 |  |  |  |  |  |  |  |  |  | 
36 | COc1cc2c(N3CCCCC3)nc(NS(C)(=O)=O)nc2cc1OCc1ccccc1 |  | > 50 |  |  |  |  |  |  |  | ~5.5 | 
37 | COc1cc2c(N3CCCCC3)nc(Nc3ccc(Cl)cc3)nc2cc1OC1CCCC1 | 22.7 | 37.5 |  |  |  |  |  |  |  |  | 
38 | COc1cc2c(N3CCCCC3)nc(NC(=O)c3ccc(C(F)(F)F)cc3)nc2cc1OC1CCCC1 |  | 79 |  |  |  |  |  |  |  | ~34.5 | 
39 | COc1cc2c(N3CCCCC3)nc(NS(C)(=O)=O)nc2cc1OC1CCCC1 |  | 57.9 |  |  |  |  |  |  |  | ~5.1 | 
40 | COc1cc2c(N3CCCCC3)nc(NS(C)(=O)=O)nc2cc1O |  | > 100 |  |  |  |  |  |  |  | ~3.25 | 
